Results taken from the supplement of paper PMC10307832.

Legend:
Assay in all cases: relative viability (nuclei count vs DMSO), 5 days (fraction); higher = more cells survive
[1] = compound: COC1=CC=C(C=C1)CN2C=CC3=C2C=C(C=C3)C(=O)NO + COc1cc2c(Oc3ccc(NC(=O)C4(C(=O)Nc5ccc(F)cc5)CC4)cc3F)ccnc2cc1OCCCN1CCOCC1 [Foretinib] (partner 0.25 µM)
Outline: (§1)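 Five library-drug doses in √10 steps were combined with a fixed anchor-drug dose, or a single drug was given alone, by pin tool to lung cancer cell lines in 1536-well plates the day after seeding. Nuclei were stained and counted after 5 days. Relative viability is the nuclei count in treated wells over that in vehicle wells, taken as the median of duplicate plates.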

[2] = compound: COC1=CC=C(C=C1)CN2C=CC3=C2C=C(C=C3)C(=O)NO + CS(=O)(=O)N1CCN(Cc2cc3nc(-c4cccc5[nH]ncc45)nc(N4CCOCC4)c3s2)CC1 [Pictilisib] (partner 1 µM)
Outline: as §1

Veliparib + Tozasertib = compound: C[C@]1(c2nc3c(C(N)=O)cccc3[nH]2)CCCN1 [Veliparib] + Cc1cc(Nc2cc(N3CCN(C)CC3)nc(Sc3ccc(NC(=O)C4CC4)cc3)n2)n[nH]1 [Tozasertib] (partner 0.1 µM)
Outline: as §1

Veliparib + Olaparib = compound: C[C@]1(c2nc3c(C(N)=O)cccc3[nH]2)CCCN1 [Veliparib] + O=C(c1cc(Cc2n[nH]c(=O)c3ccccc23)ccc1F)N1CCN(C(=O)C2CC2)CC1 [Olaparib] (partner 8 µM)
Outline: as §1

Cell Line	relative viability ([1]; first compound 0.08 µM)	relative viability ([1]; first compound 0.253 µM)	relative viability ([1]; first compound 0.8 µM)	relative viability ([1]; first compound 2.53 µM)	relative viability ([1]; first compound 8 µM)	relative viability ([2]; first compound 0.08 µM)	relative viability ([2]; first compound 0.253 µM)	relative viability ([2]; first compound 0.8 µM)	relative viability ([2]; first compound 2.53 µM)	relative viability ([2]; first compound 8 µM)	relative viability (Veliparib + Tozasertib; first compound 0.02 µM)	relative viability (Veliparib + Tozasertib; first compound 0.06325 µM)	relative viability (Veliparib + Tozasertib; first compound 0.2 µM)	relative viability (Veliparib + Tozasertib; first compound 0.6325 µM)	relative viability (Veliparib + Tozasertib; first compound 2 µM)	relative viability (Veliparib + Olaparib; first compound 0.06325 µM)	relative viability (Veliparib + Olaparib; first compound 0.2 µM)	relative viability (Veliparib + Olaparib; first compound 0.6325 µM)	relative viability (Veliparib + Olaparib; first compound 2 µM)	relative viability (Veliparib + Olaparib; first compound 0.02 µM)
HOP-62	0.74	1.14	1.08	1.01	1.1	0.249	0.885	0.988	0.908	0.396	0.327	0.382	0.419	0.328	0.39	0.347	0.364	0.342	0.383	
LC-2-ad	0.904	0.918	0.899	0.906	0.816	0.437	0.597	0.547	0.439	0.427		0.456	0.486	0.417	0.445	0.68	0.662	0.756	0.681	0.744
EKVX	0.542	0.555	0.801	0.762	0.849	0.327	0.443	0.424	0.522	0.439	0.333	0.362	0.426	0.375	0.37	0.911	0.889	0.72	0.867	
LCLC-103H	0.68	0.846	0.832	0.789	0.761	0.526	0.621	0.586	0.648	0.532	0.528	0.339	0.463	0.443	0.485	0.74	0.826	0.75	0.745	0.753
LU99A		0.904	0.841	0.865	0.836		0.338	0.355	0.295	0.283	0.328	0.271	0.239	0.245	0.279	0.266	0.257	0.265	0.31	0.252
NCI-H520	0.326	0.841	0.895	0.814	0.907	0.265	0.266	0.314	0.276	0.271	0.337	0.488	0.439	0.47	0.503	0.329	0.332	0.366	0.358	0.352
COR-L23	0.741	0.992	0.985	0.99	0.945	0.496	0.788	0.714	0.727	0.711	0.229	0.249	0.257	0.216	0.172	0.247	0.329	0.295	0.355	0.376
NCI-H1437	1.05	1.21	1.22	1.34	1.27	0.47	0.449	0.473	0.481	0.412	0.384	0.438	0.43	0.406	0.399	0.624	0.616	0.653	0.661	0.688
